Assay results taken from article PMC12867150, “A fungi-derived cyclic peptide enhances Th9-mediated antitumor immunity by targeting ZAP70 and SREBP1” (The Journal of Clinical Investigation, 2025).
Where “and” joins values, the source holds several entries; their conditions need not be identical. Identical values can stand only once. Counter-ions that a name gives are not always drawn.

Columns and labels:
[1] = tested on: PD-1 on Th9 cells; experiment: Flow cytometry of PD-1 on Th9 cells in vitro (Figure 5K, 7E, S3D); assay type: cell-based, mouse; details: for PD-1 expression in Th9 cells: Figure 7E, one per column (n = 4); for PD-1 expression in Th9 cells / PD1 (flow cytometric quantification): individual replicates; for PD-1 expression: result in words; for PD1 (flow cytometric quantification): Figure 5K, (n = 5); for Expression of PD-1 in Th9: Supplemental Figure 3D
Method: (§1) Naive CD4^+ T cells were isolated from the spleens of C57BL/6J or CD45.1^+ OT-II mice using the MojoSort Mouse CD4 Naive T Cell Isolation Kit (BioLegend, catalog 480040), following the manufacturer’s protocol. Purified cells were cultured in RPMI-1640 medium supplemented with 10% FBS, 1% penicillin-streptomycin, and 0.1% β-mercaptoethanol (Gibco, catalog 21985023).
(§2) T cell polarization was initiated under plate-bound anti-CD3 (2 μg/mL, clone 17A2, BioXCell, catalog BE0002) and soluble anti-CD28 (1 μg/mL, clone 37.51, BioXCell, catalog BE0015-1) stimulation, with the addition of cytokines and neutralizing antibodies specific to each subset. For Th9 cells, these included IL-4 (10 ng/mL, Peprotech, catalog 400-04), TGF-β (1 ng/mL, EPOTO Biotech, catalog HF-2021), anti–IL-12 (5 μg/mL, clone C17.8, BioXCell, catalog BE0051), and anti–IFN-γ (10 μg/mL, clone XMG1.2, BioXCell, catalog BE0055); for Th1 cells, these included IL-12 (10 ng/mL, GenScript, catalog Z03211-50) and anti–IL-4 (5 μg/mL, clone 11B11, BioXCell, catalog BE0045); for Th2 cells, these included IL-4 (50 ng/mL), anti–IFN-γ (20 μg /mL), anti–IL-12 (5 μg/mL), Th17 cells: IL-6 (20 ng/mL, EPOTO Biotech, catalog MF-1006), TGF-β (1 ng/mL), IL-1β (10 ng/mL, Peprotech, catalog AF-211-11B), anti–IFN-γ (10 μg/mL), anti–IL-12 (5 μg/mL), and anti–IL-4 (5 μg/mL); and for Tregs, these included TGF-β (3 ng/mL). After 3 days of initial culture, cells were either collected for downstream assays or continued in extended culture with refreshed cytokines to maintain lineage commitment.
(§3) Details regarding staining panels (human and mouse), reagents (including clones and catalog numbers), acquisition settings, compensation/controls, and analysis procedures are provided in Supplemental Methods.
(§4) BioLegend, Cat. No. 422301 or Mouse TruStain FcX™, BioLegend, Cat. No. 101319) for 10 minutes at 4°C. For surface marker detection, cells were stained with fluorochrome-conjugated monoclonal antibodies in 96-well V-bottom plates and incubated on ice for 30 minutes. After staining, cells were washed twice and resuspended in FACS buffer for analysis.
(§5) Prior to intracellular cytokine staining, cells were restimulated for 4 hours with PMA (Absin, Cat. No. abs9107), ionomycin (Sigma-Aldrich, Cat. No. I0634), and brefeldin A (MedChemExpress, Cat. No. HY-16592). For intracellular cytokine staining, cells were first surface-stained as described above, then fixed and permeabilized using the BD Cytofix/Cytoperm™ kit (BD Biosciences, Cat. No. 554714) according to the manufacturer ’s protocol. Intracellular proteins were stained with directly conjugated antibodies targeting IL-9, IL-17a, IL-4, IFN-γ, TNF-α, FOXP3, p-ZAP70, Perforin, and […]
(§6) Antibodies used for mouse samples included those against IL-9 (PE, clone RM9A4, Biolegend, Cat. No. 514104), IFN-γ (PE, clone XMG1.2, Biolegend, Cat. No.
(§7) Cat. No. 103138), CD4 (APC/Cy7, clone E-AB-F1353UJ, Elabscience, Cat. No.
(§8) AF18028), CD8α (PerCP/Cy5.5, clone E-AB-F1104UJ, Elabscience, Cat. No. […]
(§9) clone E-AB-F1187UH, Elabscience, Cat. No. AF19854), TNF-α (BV421, clone MP6-XT22, Biolegend, Cat. No. 506328), FOXP3 (PE, clone FJK-16s, eBioscience, Cat. No.
(§10) Perforin (APC, clone S16009A, Biolegend, Cat. No. 154303) and Granzyme B (APC, […]
(§11) clone QA16A02, Biolegend, Cat. No. 372203). […]

[2] = tested on: mitochondria of human Th9 cells; experiment: Mitochondrial membrane potential / mass of human Th9 cells (Figure 8D, S9B); assay type: cell-based; details: for mitochondrial mass using Mito Tracker in human Th9 cells: flow cytometry, Supplemental Figure 9B
Method: For Th9 polarization, cultures were supplemented with IL-4 (10 ng/mL, PeproTech, catalog AF-200-04), TGF-β (1 ng/mL), and neutralizing anti–IFN-γ monoclonal antibody (10 μg/mL, clone B27, BioXcell, catalog BE0245). After 3 days of initial culture, cells were either collected for downstream assays or continued in extended culture with refreshed cytokines to maintain lineage commitment without antibodies. Th9 cells were collected at days 4, 5, and 6 for subsequent in vitro assays. For adoptive transfer studies, day 4–cultured Th9 cells were washed and prepared for intravenous injection.
Mitochondrial mass and membrane potential were assessed using MitoTracker™ Deep Red FM (Thermo Fisher Scientific, catalog M22426) and TMRM (tetramethylrhodamine methyl ester; Macklin, catalog T868125), respectively, following the manufacturers’ protocols. Cells were incubated with the respective dyes, washed, and subjected to flow cytometry or fluorescence microscopy analysis. For ultrastructural assessment, mitochondrial number and diameter were quantified from high-resolution transmission electron microscopy (TEM) images using ImageJ software.

[3] = tested on: TNF-α in Th9 cells; experiment: Flow cytometry of TNF-α in Th9 cells in vitro (Figure 3F, 5I, 7C, S8M-N); assay type: cell-based, mouse; parameters: TNF expression in Th9 cells / TNF-α expression of Th9 cells: unit not given here; details: for TNF expression in Th9 cells: Figure 7C, one per column (n = 4); for TNF (flow cytometric quantification): Figure 5I, (n = 5); for TNF-α expression of Th9 cells: Supplemental Figure 8N
Method: as §1, §2, §3, §4, §5, §6, §7, §8, §9, §10, §11

[4] = single agent, 10 µM, individual replicates

**Q.** Which “PD-1 expression in Th9 cells” value ([1]; single agent, 10 µM) does the source give for `CCCc1cc(-c2nc(-c3ccc(C)cc3)cs2)ccn1` [fatostatin, fatostatin hydrobromide, reference compound] here?
**A.** 384 and 402 and 369 and 372

**Q.** What about the PD-1 expression ([1]; fatostatin alone or with EpA) of the same compound?
**A.** induced PD-1 upregulation in control Th9 cells

**Q.** What about the “mitochondrial membrane potential, human EpA-Th9” value ([2]; with fatostatin, result in words) of the same compound?
**A.** further augmented

**Q.** What about the “TNF expression in Th9 cells” value [3, 4] of the same compound?
**A.** 2574 and 2507 and 2536 and 2484

**Q.** anteiso-C15 Leu7 surfactin [EpA] was tested. Which PD-1 expression ([1]; EpA-Th9 cells in vitro) did it give?
**A.** increased PD-1 expression

**Q.** What about the “PD1 (flow cytometric quantification)” value ([1]; EpA + ERKin combination) of the same compound?
**A.** 205 and 196 and 199 and 194 and 192

**Q.** What about the “PD1 (flow cytometric quantification)” value ([1]; EpA + MEKin combination) of the same compound?
**A.** 163 and 169 and 166 and 170 and 159

**Q.** And the “PD1 (flow cytometric quantification)” value ([1]; single agent)?
**A.** 986 and 1657 and 450 and 878 and 1491

**Q.** What about the “PD-1 expression in Th9 cells” value ([1]; EpA (10 µM) + Fatostatin (10 µM)) of the same compound?
**A.** 424 and 342 and 382 and 324

**Q.** And the “PD-1 expression in Th9 cells” value ([1]; single agent, 10 µM)?
**A.** 366 and 370 and 368 and 374

**Q.** And the “Expression of PD-1 in Th9” value ([1]; replicate 1)?
**A.** 836

**Q.** And the “Expression of PD-1 in Th9” value ([1]; replicate 2)?
**A.** 830

**Q.** What about the “Expression of PD-1 in Th9” value ([1]; replicate 3) of the same compound?
**A.** 871

**Q.** And the “Expression of PD-1 in Th9” value ([1]; replicate 4)?
**A.** 812

**Q.** What about the “Expression of PD-1 in Th9” value ([1]; replicate 5) of the same compound?
**A.** 848

**Q.** What about the “Expression of PD-1 in Th9” value ([1]; replicate 6) of the same compound?
**A.** 842

**Q.** What about the PD-1 expression ([1]; fatostatin alone or with EpA) of the same compound?
**A.** not further increased in EpA-Th9 cells treated with fatostatin

**Q.** And the “mitochondrial mass using Mito Tracker in human Th9 cells” value (“mitochondrial mass using Mito Tracker” for short) ([2]; replicate 1)?
**A.** 2.888 ×10^5

**Q.** What about the “mitochondrial mass using Mito Tracker” value ([2]; replicate 2) of the same compound?
**A.** 2.867 ×10^5

**Q.** What about the “mitochondrial mass using Mito Tracker” value ([2]; replicate 3) of the same compound?
**A.** 2.9 ×10^5

**Q.** And the “mitochondrial membrane potential, human Th9” value ([2]; result in words)?
**A.** increased mitochondrial membrane potential

**Q.** What about the TNF-α production ([3]; EpA + fatostatin, result in words) of the same compound?
**A.** elevated in the combination group

**Q.** And the “MFI of TNF-α” value ([3]; EpA-treated Th9 cells, individual replicates, n = 6)?
**A.** 2286 and 2180 and 2244 and 2177 and 2115 and 2169

**Q.** What about the “TNF (flow cytometric quantification)” value ([3]; EpA + ERKin combination, individual replicates) of the same compound?
**A.** 2696 and 2174 and 2281 and 2032 and 1920

**Q.** And the “TNF (flow cytometric quantification)” value ([3]; EpA + MEKin combination, individual replicates)?
**A.** 1415 and 1401 and 1417 and 1456 and 1441

**Q.** What about the “TNF (flow cytometric quantification)” value ([3]; single agent, individual replicates) of the same compound?
**A.** 2873 and 2973 and 3771 and 3384 and 2525

**Q.** And the “TNF expression in Th9 cells” value ([3]; EpA (10 µM) + Fatostatin (10 µM), individual replicates)?
**A.** 3879 and 3735 and 3908 and 3188

**Q.** And the “TNF expression in Th9 cells” value [3, 4]?
**A.** 2951 and 2896 and 2950 and 2779

**Q.** What about the “TNF-α expression of Th9 cells” value ([3]; MigR1, replicate 1) of the same compound?
**A.** 2796

**Q.** What about the “TNF-α expression of Th9 cells” value ([3]; MigR1, replicate 2) of the same compound?
**A.** 2837

**Q.** And the “TNF-α expression of Th9 cells” value ([3]; MigR1, replicate 3)?
**A.** 2787

**Q.** And the “TNF-α expression of Th9 cells” value ([3]; SREBP1, replicate 1)?
**A.** 2060

**Q.** What about the “TNF-α expression of Th9 cells” value ([3]; SREBP1, replicate 2) of the same compound?
**A.** 1962

**Q.** What about the “TNF-α expression of Th9 cells” value ([3]; SREBP1, replicate 3) of the same compound?
**A.** 1934

**Q.** And the “EpA-induced TNF-α increase (protein) upon SREBP1 overexpression” value ([3]; result in words)?
**A.** markedly suppressed
